Converted amounts (≈) assume the structure as drawn. Structures can show the parent of a compound that is named as a salt. Where two headings read alike, the source gives them in different places.
How the values were obtained:
Assay type in all cases: cell-based
[1] = test system: Salmonella typhimurium CT10; test: MIC in agar; details: Salmonella enterica; in agar; Salmonella typhimurium CT10; read-out: M.I.C.
Text: (§1) a. Antibacterial effectiveness of compounds of
(§2) Examples 6 and 7 in agar.
(§3) (μg/ml) in agar of compound

Klebsiella aerogenes A = test: MIC in agar; details: in agar; Klebsiella aerogenes A; read-out: M.I.C.
Text: as §1, §2, §3

Proteus rettgeri WM16 = test: MIC in agar; details: Providencia rettgeri; in agar; Proteus rettgeri WM16; read-out: M.I.C.
Text: as §1, §2, §3

Enterobacter cloacae N1 = test: MIC in agar; details: in agar; Enterobacter cloacae N1; read-out: M.I.C.
Text: as §1, §2, §3

Citrobacter freundii E8 = test: MIC in agar; details: in agar; Citrobacter freundii E8; read-out: M.I.C.
Text: as §1, §2, §3

Pseudomonas aeruginosa A = test: MIC in agar; details: in agar; Pseudomonas aeruginosa A; read-out: M.I.C.
Text: as §1, §2, §3

[2] = test system: Streptococcus pneumoniae CN33; test: MIC in agar
Text: as §1, §2, §3

[3] = test system: Staphylococcus aureus Russell; test: MIC in agar; details: in agar; Staphylococcus aureus Russell; read-out: M.I.C.
Text: as §1, §2, §3

[4] = test system: Streptococcus pyogenes CN10; test: MIC in agar; details: in agar; Streptococcus pyogenes CN10; read-out: M.I.C.
Text: as §1, §2, §3

Proteus mirabilis C977 = test: MIC in agar; details: in agar; Proteus mirabilis C977; read-out: M.I.C.
Text: as §1, §2, §3

Streptococcus faecalis I = test: MIC in agar; details: Enterococcus faecalis; in agar; Streptococcus faecalis I; read-out: M.I.C.
Text: as §1, §2, §3

Proteus morganii 1580 = test: MIC in agar; details: Morganella morganii; in agar; Proteus morganii 1580; read-out: M.I.C.
Text: as §1, §2, §3

Bacillus subtilis A = test: MIC in agar; details: in agar; Bacillus subtilis A; read-out: M.I.C.
Text: as §1, §2, §3

[5] = test system: Staphylococcus aureus 1517; test: MIC in agar; details: in agar; Staphylococcus aureus 1517; read-out: M.I.C.
Text: as §1, §2, §3

Proteus vulgaris W091 = test: MIC in agar; details: in agar; Proteus vulgaris W091; read-out: M.I.C.
Text: as §1, §2, §3

Escherichia coli 0111 = test: MIC in agar
Text: as §1, §2, §3

Escherichia coli JT39 = test: MIC in agar
Text: as §1, §2, §3

[6] = test system: Staphylococcus aureus Oxford; test: MIC in agar; details: in agar; Staphylococcus aureus Oxford; read-out: M.I.C.
Text: as §1, §2, §3

Serratia marcescens US20 = test: MIC in agar; details: in agar; Serratia marcescens US20; read-out: M.I.C.
Text: as §1, §2, §3

Shigella sonnei MB 11967 = test: MIC in agar; details: MB11967
Text: as §1, §2, §3

E. coli ESS = test: MIC in agar; details: Escherichia coli
Text: | (μg/ml) in agar of compound

Bacteroides fragilis BC4 = test: Antibacterial effectiveness in agar; details: Bacteroides fragilis, BC4
Text: (§4) b. Antibacterial effectiveness of the compound of […]

[7] = test system: Klebsiella aerogenes T219; test: Antibacterial effectiveness in agar; details: Klebsiella aerogenes, T219
Text: as §4

[8] = test system: Pseudomonas aeruginosa W975; test: Antibacterial effectiveness in agar; details: Pseudomonas aeruginosa, W975
Text: as §4

Escherichia coli E8 = test: Antibacterial effectiveness in agar; details: Escherichia coli, E8
Text: as §4

[9] = test system: Bacteroides fragilis BC16; test: Antibacterial effectiveness in agar; details: Bacteroides fragilis, BC16
Text: as §4

[10] = test system: Staphylococcus aureus T67+; test: Antibacterial effectiveness in agar; details: Staphylococcus aureus
Text: as §4

[11] = test system: Proteus vulgaris NCTC 4395; test: Antibacterial effectiveness in agar; details: Proteus vulgaris, NCTC4395
Text: as §4

Escherichia coli JT20R+ = test: Antibacterial effectiveness in agar
Text: as §4

[12] = test system: Staphylococcus aureus ATCC 25923; test: Antibacterial effectiveness in agar; details: Staphylococcus aureus, ATCC25923
Text: as §4

Proteus mirabilis 889 = test: Antibacterial effectiveness in agar; details: Proteus mirabilis, 889
Text: as §4

Escherichia coli JT425C+ = test: Antibacterial effectiveness in agar; details: Escherichia coli
Text: as §4

[13] = test system: Enterobacter cloacea T749; test: Antibacterial effectiveness in agar; details: Enterobacter, T749
Text: as §4

[14] = test system: Pseudomonas aeruginosa NCTC 10662; test: Antibacterial effectiveness in agar; details: Pseudomonas aeruginosa, NCTC10662
Text: as §4

[15] = test system: Escherichia coli NCTC 15418; test: Antibacterial effectiveness in agar; details: Escherichia coli, NCTC15418
Text: as §4

[16] = test system: Streptococcus faecalis T1101; test: Antibacterial effectiveness in agar; details: Enterococcus faecalis, T1101
Text: as §4

Proteus morganii T361 = test: Antibacterial effectiveness in agar; details: Morganella morganii, T361
Text: as §4

Escherichia coli JT4R+ = test: Antibacterial effectiveness in agar
Text: as §4

Citrobacter freundii W18 = test: Antibacterial effectiveness in agar; details: Citrobacter freundii, W18
Text: as §4

[17] = test system: Enterobacter cloacea NCTC 10005; test: Antibacterial effectiveness in agar; details: Enterobacter, NCTC10005
Text: as §4

Escherichia coli JT414C+ = test: Antibacterial effectiveness in agar; details: Escherichia coli
Text: as §4

Bacteroides fragilis WS1 = test: Antibacterial effectiveness in agar; details: Bacteroides fragilis, WS1
Text: as §4

Escherichia coli Ba78R+ = test: Antibacterial effectiveness in agar; details: Escherichia coli
Text: as §4

Escherichia coli E96R+ = test: Antibacterial effectiveness in agar
Text: as §4

[18] = test system: Klebsiella aerogenes Va2R+; test: Antibacterial effectiveness in agar; details: Klebsiella aerogenes
Text: as §4

Serratia marcescens SM27 = test: Antibacterial effectiveness in agar; details: Serratia marcescens, SM27
Text: as §4

[19] = test system: Bacteroides fragilis VP1 8249; test: Antibacterial effectiveness in agar; details: Bacteroides fragilis, VP18249
Text: as §4

[20] = test system: Serratia marcescens Wo146; test: Antibacterial effectiveness in agar; details: Serratia marcescens, WO146
Text: as §4

[21] = test system: Pseudomonas aeruginosa Dalgleish; test: Antibacterial effectiveness in agar; details: Pseudomonas aeruginosa
Text: as §4

Proteus rettgeri I = test: Antibacterial effectiveness in agar; details: Providencia rettgeri
Text: as §4

[22] = test system: Klebsiella aerogenes R112; test: Antibacterial effectiveness in agar; details: Klebsiella aerogenes, R112
Text: as §4

[23] = test system: Bacteroides fragilis WS41; test: Antibacterial effectiveness in agar; details: Bacteroides fragilis, WS41
Text: as §4

Escherichia coli JT1 = test: Antibacterial effectiveness in agar; details: Escherichia coli, JT1
Text: as §4

Escherichia coli 5 = test: Antibacterial effectiveness in agar; details: Escherichia coli, 5
Text: as §4

[24] = test system: Staphylococcus aureus Smith; test: Antibacterial effectiveness in agar; details: Staphylococcus aureus
Text: as §4

[25] = test system: Bacteroides fragilis WS12; test: Antibacterial effectiveness in agar; details: Bacteroides fragilis, WS12
Text: as §4

Bacteroides fragilis B3 = test: Antibacterial effectiveness in agar; details: Bacteroides fragilis, B3
Text: as §4

Proteus vulgaris X = test: Antibacterial effectiveness in agar; details: Proteus vulgaris
Text: as §4

[26] = test system: Citrobacter freundii T221; test: Antibacterial effectiveness in agar; details: Citrobacter freundii, T221
Text: as §4

[27] = test system: Streptococcus faecalis C90; test: Antibacterial effectiveness in agar; details: Enterococcus faecalis, C90
Text: as §4

[28] = test system: Klebsiella aerogenes I281; test: Antibacterial effectiveness in agar; details: Klebsiella aerogenes, I281
Text: as §4

Proteus morganii I = test: Antibacterial effectiveness in agar; details: Morganella morganii
Text: as §4

Proteus mirabilis T318 = test: Antibacterial effectiveness in agar; details: Proteus mirabilis, T318
Text: as §4

[29] = test system: Staphylococcus aureus ME9+; test: Antibacterial effectiveness in agar; details: Staphylococcus aureus
Text: as §4

[30] = test system: Staphylococcus aureus T150+; test: Antibacterial effectiveness in agar; details: Staphylococcus aureus
Text: as §4

[31] = test system: Enterbacter aerogenes NCTC 10006; test: Antibacterial effectiveness in agar
Text: as §4

[32] = test system: Enterbacter aerogenes T660; test: Antibacterial effectiveness in agar
Text: as §4

Proteus rettgeri R110 = test: Antibacterial effectiveness in agar; details: Providencia rettgeri, R110
Text: as §4

[33] = test system: Bacteroides fragilis 2118; test: Antibacterial effectiveness in agar; details: Bacteroides fragilis, 2118
Text: as §4

C[C@H](O)[C@@H]1C(=O)N2C(C(=O)O)=C(S/C=C\C(=O)O)C[C@H]12 [Example 24, The Disodium salt of (5R,6R)-3-[(Z)-2-carboxyethenylthio]-6-[(S)-1-hydroxyethyl]-7-oxo-1-azabicyclo[3.2.0]hept-2-ene-2-carboxylic acid]
MIC [1]: 0.5 µg/mL | MIC (Klebsiella aerogenes A): 0.2 µg/mL | MIC (Proteus rettgeri WM16): 0.5 µg/mL | MIC (Enterobacter cloacae N1): 0.5 µg/mL | MIC (Citrobacter freundii E8): 1.2 µg/mL | MIC (Pseudomonas aeruginosa A): > 50 µg/mL | MIC [2]: ≤ 0.1 µg/mL | MIC [3]: 0.5 µg/mL | MIC [4]: ≤ 0.1 µg/mL | MIC (Proteus mirabilis C977): 0.5 µg/mL | MIC (Streptococcus faecalis I): 2.5 µg/mL | MIC (Proteus morganii 1580): 0.5 µg/mL | MIC (Bacillus subtilis A): ≤ 0.1 µg/mL | MIC [5]: 5 µg/mL | MIC (Proteus vulgaris W091): 0.5 µg/mL | MIC (Escherichia coli 0111): 0.2 µg/mL | MIC (Escherichia coli JT39; in agar, Escherichia coli JT39, read-out: M.I.C.): 5 µg/mL | MIC [6]: 0.5 µg/mL | MIC (Serratia marcescens US20): 2.5 µg/mL | MIC (Shigella sonnei MB 11967): 0.5 µg/mL | MIC (E. coli ESS): ≤ 0.1 µg/mL

C[C@H](O)[C@@H]1C(=O)N2C(C(=O)O)=C(S/C=C\C(=O)OCCN)C[C@H]12 [Example 20, (5R,6R)-3-[2-(Z)-(2-Aminoethoxycarbonyl)ethenylthio]-6-[(S)-1-hydroxyethyl]-7-oxo-1-azabicyclo[3.2.0]hept-2-ene-2-carboxylic acid]
MIC [1]: ≤ 0.1 µg/mL | MIC (Klebsiella aerogenes A): ≤ 0.1 µg/mL | MIC (Proteus rettgeri WM16): 0.2 µg/mL (≈ 0.584 µM) | MIC (Enterobacter cloacae N1): 0.2 µg/mL (≈ 0.584 µM) | MIC (Citrobacter freundii E8): 0.2 µg/mL (≈ 0.584 µM) | MIC (Pseudomonas aeruginosa A): 25 µg/mL (≈ 73 µM) | MIC [2]: ≤ 0.1 µg/mL | MIC [4]: ≤ 0.1 µg/mL | MIC (Proteus mirabilis C977): 0.4 µg/mL (≈ 1.17 µM) | MIC (Streptococcus faecalis I): ≤ 0.1 µg/mL | MIC (Bacillus subtilis A): ≤ 0.1 µg/mL | MIC [5]: 0.2 µg/mL (≈ 0.584 µM) | MIC (Proteus vulgaris W091): 0.4 µg/mL (≈ 1.17 µM) | MIC (Escherichia coli 0111): ≤ 0.1 µg/mL | MIC (Escherichia coli JT39; Escherichia coli, JT39): 0.2 µg/mL (≈ 0.584 µM) | MIC [6]: ≤ 0.1 µg/mL | MIC (Serratia marcescens US20): ≤ 0.1 µg/mL | MIC (Shigella sonnei MB 11967): 0.2 µg/mL (≈ 0.584 µM) | MIC (E. coli ESS): ≤ 0.1 µg/mL

CCSC1=C(C(=O)[O-])N2C(=O)[C@@H]([C@H](C)OS(=O)(=O)[O-])[C@H]2C1.[Na+].[Na+] [Example 14, Disodium (5R,6R)-3-ethylthio-6-[(S)-1-sulphonato-oxyethyl]-7-oxo-1-azabicyclo[3.2.0]hept-2-ene-2-carboxylate]
MIC (Bacteroides fragilis BC4): 0.8 µg/mL | MIC [7]: ≤ 0.1 µg/mL | MIC [8]: 100 µg/mL | MIC (Escherichia coli E8): ≤ 0.1 µg/mL | MIC [9]: 1.6 µg/mL | MIC [10]: 0.8 µg/mL | MIC [11]: 0.2 µg/mL | MIC (Escherichia coli JT20R+): 0.8 µg/mL | MIC [12]: 0.4 µg/mL | MIC (Proteus mirabilis 889): 0.8 µg/mL | MIC (Escherichia coli JT425C+): ≤ 0.1 µg/mL | MIC [13]: 6.2 µg/mL | MIC [14]: 50 µg/mL | MIC [15]: ≤ 0.1 µg/mL | MIC [16]: 12.5 µg/mL | MIC (Proteus morganii T361): 0.4 µg/mL | MIC (Escherichia coli JT4R+): 0.4 µg/mL | MIC (Citrobacter freundii W18): 1.6 µg/mL | MIC [17]: 6.2 µg/mL | MIC (Escherichia coli JT414C+): 0.2 µg/mL | MIC (Bacteroides fragilis WS1): 6.2 µg/mL | MIC (Escherichia coli Ba78R+): 0.2 µg/mL | MIC (Escherichia coli E96R+): ≤ 0.1 µg/mL | MIC [18]: 0.8 µg/mL | MIC (Serratia marcescens SM27): 0.4 µg/mL | MIC [19]: 0.4 µg/mL | MIC [20]: 1.6 µg/mL | MIC [21]: 50 µg/mL | MIC (Proteus rettgeri I): 0.4 µg/mL | MIC [22]: ≤ 0.1 µg/mL | MIC [23]: 0.2 µg/mL | MIC (Escherichia coli JT1): ≤ 0.1 µg/mL | MIC (Escherichia coli 5): ≤ 0.1 µg/mL | MIC [24]: 0.4 µg/mL | MIC [25]: 0.2 µg/mL | MIC (Bacteroides fragilis B3): 0.4 µg/mL | MIC (Proteus vulgaris X): 0.4 µg/mL | MIC [26]: 1.6 µg/mL | MIC [27]: 12.5 µg/mL | MIC [28]: ≤ 0.1 µg/mL | MIC (Proteus morganii I): 0.4 µg/mL | MIC (Proteus mirabilis T318): 0.4 µg/mL | MIC [29]: 1.6 µg/mL | MIC [30]: 0.4 µg/mL | MIC [31]: 0.4 µg/mL | MIC [32]: 0.2 µg/mL | MIC (Proteus rettgeri R110): 0.2 µg/mL | MIC [33]: 0.2 µg/mL
